Laboratory results from ChEMBL document CHEMBL5143590, “Dihydropyrimidinone imidazoles as unique structural antibacterial agents for drug-resistant gram-negative pathogens” (Eur J Med Chem, 2022).
Converted amounts (≈) assume the structure as drawn. The source made the active and inactive calls. The calls are words filed in the database; no cut-off is given here.

Columns and labels:
Acinetobacter baumannii [1] = experiment: Anti- biofilm activity against Acinetobacter baumannii assessed as inhibition of biofilm formation at 1 time MIC relative to control; assay type: functional; set-up: scale not given: the % may be the effect or the level left
Calf thymus DNA [2] = experiment: Binding affinity to calf thymus DNA assessed as reduction in fluorescence intensity of DNA-acridine orange complex by acridine orange dye based fluorescence analysis; assay type: nucleic-acid assay; conditions: Bos taurus
Staphylococcus aureus [3] = experiment: Antibacterial activity against methicillin-resistant Staphylococcus aureus N315 assessed as inhibition of bacterial growth by two fold serial dilution method; assay type: functional
Enterococcus faecalis = experiment: Antibacterial activity against Enterococcus faecalis assessed as inhibition of bacterial growth by two fold serial dilution method; assay type: functional
Staphylococcus aureus [4] = experiment: Antibacterial activity against Staphylococcus aureus assessed as inhibition of bacterial growth by two fold serial dilution method; assay type: functional
Staphylococcus aureus [5] = experiment: Antibacterial activity against Staphylococcus aureus 25923 assessed as inhibition of bacterial growth by two fold serial dilution method; assay type: functional
Staphylococcus aureus [6] = experiment: Antibacterial activity against Staphylococcus aureus 29213 assessed as inhibition of bacterial growth by two fold serial dilution method; assay type: functional
Klebsiella pneumoniae [7] = experiment: Antibacterial activity against Klebsiella pneumoniae assessed as inhibition of bacterial growth by two fold serial dilution method; assay type: functional
Escherichia coli [8] = experiment: Antibacterial activity against Escherichia coli assessed as inhibition of bacterial growth by two fold serial dilution method; assay type: functional
Escherichia coli [9] = experiment: Antibacterial activity against Escherichia coli 25922 assessed as inhibition of bacterial growth by two fold serial dilution method; assay type: functional
Pseudomonas aeruginosa [10] = experiment: Antibacterial activity against Pseudomonas aeruginosa assessed as inhibition of bacterial growth by two fold serial dilution method; assay type: functional
Pseudomonas aeruginosa [11] = experiment: Antibacterial activity against Pseudomonas aeruginosa 27853 assessed as inhibition of bacterial growth by two fold serial dilution method; assay type: functional
Acinetobacter baumannii [12] = experiment: Antibacterial activity against Acinetobacter baumannii assessed as inhibition of bacterial growth by two fold serial dilution method; assay type: functional
Acinetobacter baumannii [13] = experiment: Bactericidal activity against Acinetobacter baumannii assessed as reduction in bacterial growth at MIC and measured within 2 hrs by time-kill kinetic assay; assay type: functional
Klebsiella pneumoniae [14] = experiment: Bactericidal activity against Klebsiella pneumoniae assessed as reduction in bacterial growth at MIC and measured within 2 hrs by time-kill kinetic assay; assay type: functional
Acinetobacter baumannii [15] = experiment: Bactericidal activity against Acinetobacter baumannii assessed as reduction in bacterial growth at 4 times MIC and measured within 2 hrs by time-kill kinetic assay relative to control; assay type: functional; set-up: scale not given: the % may be the effect or the level left
Klebsiella pneumoniae [16] = experiment: Bactericidal activity against Klebsiella pneumoniae assessed as reduction in bacterial growth at 4 times MIC and measured within 2 hrs by time-kill kinetic assay relative to control; assay type: functional; set-up: scale not given: the % may be the effect or the level left
Acinetobacter baumannii [17] = experiment: Anti- biofilm activity against Acinetobacter baumannii assessed as inhibition of biofilm formation at 2 times MIC relative to control; assay type: functional; set-up: scale not given: the % may be the effect or the level left
Acinetobacter baumannii [18] = experiment: Anti- biofilm activity against Acinetobacter baumannii assessed as inhibition of biofilm formation at 4 times MIC relative to control; assay type: functional; set-up: scale not given: the % may be the effect or the level left
Acinetobacter baumannii [19] = experiment: Anti- biofilm activity against Acinetobacter baumannii assessed as inhibition of biofilm formation at 6 times MIC relative to control; assay type: functional; set-up: scale not given: the % may be the effect or the level left
Klebsiella pneumoniae [20] = experiment: Anti- biofilm activity against Klebsiella pneumoniae assessed as inhibition of biofilm formation at 1 time MIC relative to control; assay type: functional; set-up: scale not given: the % may be the effect or the level left
Klebsiella pneumoniae [21] = experiment: Anti- biofilm activity against Klebsiella pneumoniae assessed as inhibition of biofilm formation at 2 times MIC relative to control; assay type: functional; set-up: scale not given: the % may be the effect or the level left
Klebsiella pneumoniae [22] = experiment: Anti- biofilm activity against Klebsiella pneumoniae assessed as inhibition of biofilm formation at 4 times MIC relative to control; assay type: functional; set-up: scale not given: the % may be the effect or the level left
Klebsiella pneumoniae [23] = experiment: Anti- biofilm activity against Klebsiella pneumoniae assessed as inhibition of biofilm formation at 6 times MIC relative to control; assay type: functional; set-up: scale not given: the % may be the effect or the level left
Acinetobacter baumannii [24] = experiment: Anti- biofilm activity against Acinetobacter baumannii assessed as biofilm viability at 1 time MIC relative to control; assay type: functional
Acinetobacter baumannii [25] = experiment: Anti- biofilm activity against Acinetobacter baumannii assessed as biofilm viability at 2 times MIC relative to control; assay type: functional
Acinetobacter baumannii [26] = experiment: Anti- biofilm activity against Acinetobacter baumannii assessed as biofilm viability at 4 times MIC relative to control; assay type: functional
Acinetobacter baumannii [27] = experiment: Anti- biofilm activity against Acinetobacter baumannii assessed as biofilm viability at 6 times MIC relative to control; assay type: functional
Klebsiella pneumoniae [28] = experiment: Anti- biofilm activity against Klebsiella pneumoniae assessed as biofilm viability at 1 time MIC relative to control; assay type: functional
Klebsiella pneumoniae [29] = experiment: Anti- biofilm activity against Klebsiella pneumoniae assessed as biofilm viability at 2 times MIC relative to control; assay type: functional
Klebsiella pneumoniae [30] = experiment: Anti- biofilm activity against Klebsiella pneumoniae assessed as biofilm viability at 4 times MIC relative to control; assay type: functional
Klebsiella pneumoniae [31] = experiment: Anti- biofilm activity against Klebsiella pneumoniae assessed as biofilm viability at 6 times MIC relative to control; assay type: functional
Erythrocyte = experiment: Hemolytic activity in human RBC assessed as hemolysis at 512 ug/ml; assay type: toxicity, cell-based; conditions: dose 512 µg/ml
[32] = Cytotoxicity against human HepG2 cells assessed as viable cells upto 40 ug/ml relative to control; assay type: toxicity, cell-based; conditions: up to 40 µg/mL, read-out: Activity
[33] = Cytotoxicity against human endothelial cells assessed as viable cells upto 40 ug/ml relative to control; assay type: toxicity, cell-based, Endothelial cell; conditions: up to 40 µg/mL, read-out: Activity
Cell membrane [34] = experiment: Induction of cytoplasmic membrane depolarization in Acinetobacter baumannii assessed as increase in fluorescence intensity at 0.5 to 4 times MIC by DiSC35 dye based fluorescence method; conditions: DDE = dose-dependent effect
Cell membrane [35] = experiment: Induction of cytoplasmic membrane depolarization in Klebsiella pneumoniae assessed as increase in fluorescence intensity at 0.5 to 4 times MIC by DiSC35 dye based fluorescence method; conditions: DDE = dose-dependent effect
Cell membrane [36] = experiment: Induction of outer membrane permeabilization in Acinetobacter baumannii assessed as increase in fluorescence intensity at 4 times MIC by NPN-dye based fluorescence analysis; assay type: subcellular
Cell membrane [37] = experiment: Induction of outer membrane permeabilization in Klebsiella pneumoniae assessed as increase in NPN fluorescence at 4 times MIC by NPN-dye based fluorescence analysis; assay type: subcellular
Cell membrane [38] = experiment: Induction of inner membrane damage in Acinetobacter baumannii assessed as disruption of membrane integrity at 0.25 to 2 ug/ml by propidium iodide staining based fluorescence analysis; assay type: subcellular; conditions: dose 0.25-2 µg/ml
Cell membrane [39] = experiment: Induction of inner membrane damage in Klebsiella pneumoniae assessed as disruption of membrane integrity at 0.25 to 2 ug/ml by propidium iodide staining based fluorescence analysis; assay type: subcellular; conditions: dose 0.25-2 µg/ml
Klebsiella pneumoniae [40] = experiment: Induction of morphological changes in Klebsiella pneumoniae assessed as appearance of broken cell membrane at 2 times MIC for 4 hrs by SEM analysis; assay type: functional, organism-based
Klebsiella pneumoniae [41] = experiment: Induction of morphological changes in Klebsiella pneumoniae assessed as shrunken cell membrane at 2 times MIC for 4 hrs by SEM analysis; assay type: functional, organism-based
Klebsiella pneumoniae [42] = experiment: Induction of morphological changes in Klebsiella pneumoniae assessed as membrane rupture at 2 times MIC for 4 hrs by TEM analysis; assay type: functional, organism-based
Klebsiella pneumoniae [43] = experiment: Induction of morphological changes in Klebsiella pneumoniae assessed as cytoplasmic sparsity at 2 times MIC for 4 hrs by TEM analysis; assay type: functional, organism-based
Klebsiella pneumoniae [44] = experiment: Induction of morphological changes in Klebsiella pneumoniae assessed as cell lysis at 2 times MIC for 4 hrs by TEM analysis; assay type: functional, organism-based
Acinetobacter baumannii [45] = experiment: Induction of ROS generation in Acinetobacter baumannii assessed as ROS accumulation at 1 to 8 times MIC by DCFH-DA dye based fluorescence assay; assay type: functional, organism-based; conditions: DDE = dose-dependent effect
Klebsiella pneumoniae [46] = experiment: Induction of ROS generation in Klebsiella pneumoniae assessed as ROS accumulation at 1 to 8 times MIC by DCFH-DA dye based fluorescence assay; assay type: functional, organism-based; conditions: DDE = dose-dependent effect
Acinetobacter baumannii [47] = experiment: Antioxidant activity in Acinetobacter baumannii assessed as loss of GSH activity at 1 to 8 times MIC; assay type: functional, organism-based
Klebsiella pneumoniae [48] = experiment: Antioxidant activity in Klebsiella pneumoniae assessed as loss of GSH activity at 1 to 8 times MIC; assay type: functional, organism-based
Calf thymus DNA [49] = experiment: Binding affinity to calf thymus DNA assessed as assessed as compound-DNA complex formation by measuring red shift by UV-visible absorption spectrophotometric method; assay type: nucleic-acid assay; conditions: Bos taurus
Cell membrane [50] = experiment: Induction of cytoplasmic membrane depolarization in Acinetobacter baumannii assessed as increase in fluorescence intensity at 0.5 to 4 times MIC and measured up to 100 mins by DiSC35 dye based fluorescence method; assay type: subcellular; conditions: TDE = time-dependent effect
Cell membrane [51] = experiment: Induction of cytoplasmic membrane depolarization in Klebsiella pneumoniae assessed as increase in fluorescence intensity at 0.5 to 4 times MIC and measured up to 100 mins by DiSC35 dye based fluorescence method; assay type: subcellular; conditions: TDE = time-dependent effect

CCCCc1nc(Cl)c(C2NC(=O)NC(CN(c3cc(C)no3)S(=O)(=O)c3ccc(N)cc3)=C2C(=O)OCC)[nH]1 (stereo not drawn)
Activity (Acinetobacter baumannii [1]): 21% | Activity (Calf thymus DNA [2]): Active | MIC (Staphylococcus aureus [3]): 4 µg/mL (≈ 6.76 µM) | MIC (Enterococcus faecalis): 16 µg/mL (≈ 27 µM) | MIC (Staphylococcus aureus [4]): 2 µg/mL (≈ 3.38 µM) | MIC (Staphylococcus aureus [5]): 8 µg/mL (≈ 13.5 µM) | MIC (Staphylococcus aureus [6]): 2 µg/mL (≈ 3.38 µM) | MIC (Klebsiella pneumoniae [7]): 0.5 µg/mL (≈ 0.844 µM) | MIC (Escherichia coli [8]): 2 µg/mL (≈ 3.38 µM) | MIC (Escherichia coli [9]): 1 µg/mL (≈ 1.69 µM) | MIC (Pseudomonas aeruginosa [10]): 4 µg/mL (≈ 6.76 µM) | MIC (Pseudomonas aeruginosa [11]): 4 µg/mL (≈ 6.76 µM) | MIC (Acinetobacter baumannii [12]): 0.5 µg/mL (≈ 0.844 µM) | Activity (Acinetobacter baumannii [13]): 2.4 log10CFU/ml | Activity (Klebsiella pneumoniae [14]): 2.5 log10CFU/ml | Activity (Acinetobacter baumannii [15]): 66.7% | Activity (Klebsiella pneumoniae [16]): 66.7% | Activity (Acinetobacter baumannii [17]): 30% | Activity (Acinetobacter baumannii [18]): 58% | Activity (Acinetobacter baumannii [19]): 84% | Activity (Klebsiella pneumoniae [20]): 30% | Activity (Klebsiella pneumoniae [21]): 66% | Activity (Klebsiella pneumoniae [22]): 82% | Activity (Klebsiella pneumoniae [23]): 89% | Activity (Acinetobacter baumannii [24]): 87% | Activity (Acinetobacter baumannii [25]): 83% | Activity (Acinetobacter baumannii [26]): 70% | Activity (Acinetobacter baumannii [27]): 41% | Activity (Klebsiella pneumoniae [28]): 85% | Activity (Klebsiella pneumoniae [29]): 76% | Activity (Klebsiella pneumoniae [30]): 62% | Activity (Klebsiella pneumoniae [31]): 36% | Activity (Erythrocyte): Non-Toxic | viability [32]: > 50% | viability [33]: > 50% | Activity (Cell membrane [34]): Dde | Activity (Cell membrane [35]): Dde | Activity (Cell membrane [36]): Active | Activity (Cell membrane [37]): Active | Activity (Cell membrane [38]): Active | Activity (Cell membrane [39]): Active | Activity (Klebsiella pneumoniae [40]): Active | Activity (Klebsiella pneumoniae [41]): Active | Activity (Klebsiella pneumoniae [42]): Active | Activity (Klebsiella pneumoniae [43]): Active | Activity (Klebsiella pneumoniae [44]): Active | Activity (Acinetobacter baumannii [45]): Dde | Activity (Klebsiella pneumoniae [46]): Dde | Activity (Acinetobacter baumannii [47]): Active | Activity (Klebsiella pneumoniae [48]): Active | Activity (Calf thymus DNA [49]): Active | Activity (Cell membrane [50]): Tde | Activity (Cell membrane [51]): Tde
